{"source": "patent US8841339B2", "about": "“Synergistic antifouling compositions comprising 4-bromo-2-(4-chlorophenyl)-5-(trifluoromethyl)-1H-pyrrole-3-carbonitrile” (Janssen Pharmaceutica N.V., priority 2001, dated 2014)", "key": {"[1]": {"test_system": "Stichococcus bacillaris (CCAP 379/1A)", "assay": "Poison plate assay in 96 multi-well plates, algae growth", "assay_type": "cell-based", "conditions": "single active ingredient, incubation time 18 days", "description": "(§1) Activity against algae growth was determined with the poison plate assay. A calculated amount of a stock solution (containing either 4-bromo-2-(4-chlorophenyl)-5-(trifluoromethyl)-1H-pyrrole-3-carbonitrile, bethoxazin, DCOIT, dichlofluanide, or tolylfluanide in DMSO) was pipetted into multiwell plates in order to reach a final test concentration ranging from 0.05 to 100 ppm and mixed with a warm culture medium. The medium was inoculated with 300 μl of an algal suspension. The multi-well plates were kept at 21° C., a relative humidity of 65% and light-dark cycle of 16 hours a day (1000 Lux photoperiod).\n(§2) The lowest concentration of each test compound or mixture of test compounds sufficient to inhibit visible growth was taken as the minimum inhibitory concentration (MIC). The MIC were taken as end points of activity. End points for the combinations of component (I) with one of the components (II) were then compared with the end points for the pure active test compound when employed individually.\n(§3) Synergism between component (I) and one of the components (II) was determined by a commonly used and accepted method described by Kull F. C. et al. in Applied Microbiology, 9, 538-541 (1961) using the Synergy Index, which is calculated as follows for two compounds A and B:\n(§4) [formula] wherein: • QA is the concentration of compound A in ppm, acting alone, which produced an end point (e.g. MIC), • Qa is the concentration of compound A in ppm, in the mixture, which produced an end point (e.g. MIC), • QB is the concentration of compound B in ppm, acting alone, which produced an end point (e.g. MIC), • Qb is the concentration of compound B in ppm, in the mixture, which produced an end point (e.g. MIC).\n(§5) When the Synergy Index is greater than 1.0, antagonism is indicated. When the SI is equal to 1.0, additivity is indicated."}, "[2]": {"test_system": "Chlorella vulgaris (CCAP 211/12)", "assay": "Poison plate assay in 96 multi-well plates, algae growth", "assay_type": "cell-based", "conditions": "single active ingredient, incubation time 18 days", "description": "as §1, §2, §3, §4, §5"}}, "note": "Marks after values point to notes of the source that are not given here.", "data": [{"smiles": "N#Cc1c(-c2ccc(Cl)cc2)[nH]c(C(F)(F)F)c1Br", "note": "[component (I), 4-bromo-2-(4-chlorophenyl)-5-(trifluoromethyl)-1H-pyrrole-3-carbonitrile]", "values": [{"measurement": "MIC-values (minimum inhibitory concentration)", "setting": "[1]", "value": "> 100* ppm"}, {"measurement": "MIC-values (minimum inhibitory concentration)", "setting": "[2]", "value": "> 100* ppm"}]}, {"smiles": "CN(C)S(=O)(=O)N(SC(F)(Cl)Cl)c1ccccc1", "note": "[component (II-c), 1,1-dichloro-N-[(dimethylamino)sulfonyl]-1-fluoro-N-phenyl-methanesulfenamide]", "values": [{"measurement": "MIC-values (minimum inhibitory concentration)", "setting": "[1]", "value": 25, "unit": "ppm"}, {"measurement": "MIC-values (minimum inhibitory concentration)", "setting": "[2]", "value": 25, "unit": "ppm"}]}, {"smiles": "[O-][S+]1CCON=C1c1cc2ccccc2s1", "note": "(stereo not shown) [component (II-a), 3-(benzo[b]thien-2-yl)-5,6-dihydro-1,4,2-oxathiazine 4-oxide]", "values": [{"measurement": "MIC-values (minimum inhibitory concentration)", "setting": "[1]", "value": 6.2, "unit": "ppm"}, {"measurement": "MIC-values (minimum inhibitory concentration)", "setting": "[2]", "value": 1.6, "unit": "ppm"}]}, {"smiles": "CCCCCCCCn1sc(Cl)c(Cl)c1=O", "note": "[component (II-d), 4,5-dichloro-2-(n-octyl)-3(2H)-isothiazolone]", "values": [{"measurement": "MIC-values (minimum inhibitory concentration)", "setting": "[1]", "value": 1.6, "unit": "ppm"}, {"measurement": "MIC-values (minimum inhibitory concentration)", "setting": "[2]", "value": 1.6, "unit": "ppm"}]}, {"smiles": "Cc1ccc(N(SC(F)(Cl)Cl)S(=O)(=O)N(C)C)cc1", "note": "[component (II-b), 1,1-dichloro-N-[(dimethylamino)sulfonyl]-1-fluoro-N-(4-methylphenyl)-methanesulfenamide]", "values": [{"measurement": "MIC-values (minimum inhibitory concentration)", "setting": "[1]", "value": 12.5, "unit": "ppm"}, {"measurement": "MIC-values (minimum inhibitory concentration)", "setting": "[2]", "value": 25, "unit": "ppm"}]}]}
